Measurements from US20240279221A1, “HETEROCYCLIC COMPOUNDS AND METHODS OF USE” (Schrödinger, Inc., priority 2021, published 2024).
pIC50: −log10 of the molar value.

target: SOS1:KRAS (G12C) interaction (Homo sapiens (Human), UniProt Q07889); assay: SOS1-KRas(G12C) FRET Assay; type: binding; conditions: 0.5 nM His10-SOS1 (res. 564-1049), 2.5 nM GST-KRAS (res. 1-169, G12C); read-out: SOS-KRas(G12C) FRET IC50
Procedure: Inhibition of the SOS1:KRAS interaction was measured using purified GST-tagged KRAS (res. 1-169, G12C, purified based on Hillig, et al., Proc Natl Acad Sci USA (2019); 116(7):2551-2560) and recombinant His10-SOS1 (res. 564-1049; purified based on Hillig, et al.). The final assay was performed at 20 uL with 0.5 nM SOS1 protein and 2.5 nM KRAS protein in a buffer of PBS, 0.1% BSA, 5 mM MgCl2, 0.0025% Igepal, 100 mM KF, 5 mM DTT in a white 384 square well OptiPlate (PerkinElmer, Cat. 6007290). A 2× KRAS working solution was prepared in an assay buffer containing 5 nM GST-KRAS G12C and 2 nM anti-GST-Eu(K) (Cisbio, Cat. 61GSTKLA) and pre-incubated for 15 minutes at 25° C. Compounds were serially diluted in 100% DMSO from 2 mM (positive control, compound I-13, PCT Publ. No. WO2018/115380) or 20 mM and then diluted 1:20 in assay buffer before incubation with a solution of SOS1 protein mixed 1:5 with anti-6His-XL665 FRET donor (Cisbio, Cat. 61HISXL) for 15 minutes at 25° C. before addition of 2× KRAS working solution. The final DMSO concentration is 0.5%. Plates were incubated at RT for 2 hrs before the FRET signal was measured using Envision at emission 665 nm and 615 nm. FRET signal was converted to percentage of protein-protein interaction using the following equation:
[formula] • C: signal with compound treatment • P: signal for positive control (DMSO) • N: signal for negative control (no SOS1 added) • IC50 and Hill coefficients were obtained using Graph Pad Prism (Graph Pad software, Inc, USA) with non-linear regression analysis.

Sequence of SOS1:KRAS (G12C) interaction (Q07889 564-1049, stated change not applied): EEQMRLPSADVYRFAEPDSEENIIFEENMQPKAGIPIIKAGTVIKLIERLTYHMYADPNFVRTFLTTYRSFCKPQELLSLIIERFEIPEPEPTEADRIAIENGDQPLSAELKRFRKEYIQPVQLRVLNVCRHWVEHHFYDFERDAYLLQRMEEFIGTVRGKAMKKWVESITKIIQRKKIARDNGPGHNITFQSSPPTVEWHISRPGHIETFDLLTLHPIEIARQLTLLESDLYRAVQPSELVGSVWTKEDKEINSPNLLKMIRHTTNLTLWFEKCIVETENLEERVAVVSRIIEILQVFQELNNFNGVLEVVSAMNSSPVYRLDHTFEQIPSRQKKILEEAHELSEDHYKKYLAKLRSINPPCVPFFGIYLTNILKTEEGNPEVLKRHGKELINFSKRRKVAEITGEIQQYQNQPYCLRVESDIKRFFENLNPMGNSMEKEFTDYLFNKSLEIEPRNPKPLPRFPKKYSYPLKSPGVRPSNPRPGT

Structure (SMILES)	pIC50
COC(C)(C)C(F)(F)c1cccc([C@@H](C)Nc2nn(C)c(=O)c3cc(=O)n(C4(C(F)F)CC4)cc23)c1F [Example 110, (R)-4-((1-(3-(1,1-difluoro-2-methoxy-2-methylpropyl)-2-fluorophenyl)ethyl)amino)-6-(1-(difluoromethyl)cyclopropyl)-2-methyl-2,6-dihydropyrido[3,4-d]pyridazine-1,7-dione]	7.32
Cn1nc(N[C@@H](c2cccc(C(F)(F)F)c2)C(F)F)c2cn(C3CC3)c(=O)cc2c1=O [Example 111, (S)-6-cyclopropyl-4-((2,2-difluoro-1-(3-(trifluoromethyl)phenyl)ethyl)amino)-2-methylpyrido[3,4-d]pyridazine-1,7(2H,6H)-dione]	6.20
Cn1nc(N[C@H](c2cccc(C(F)(F)F)c2)C(F)F)c2cn(C3CC3)c(=O)cc2c1=O [Example 112, (R)-6-cyclopropyl-4-((2,2-difluoro-1-(3-(trifluoromethyl)phenyl)ethyl)amino)-2-methylpyrido[3,4-d]pyridazine-1,7(2H,6H)-dione]	< 5.00
C[C@H](Nc1nn(C)c(=O)c2cc(=O)n(C3(C(F)F)CC3)cc12)c1cccc2cccn12 [Example 113, (S)-6-(1-(difluoromethyl)cyclopropyl)-4-((1-(indolizin-5-yl)ethyl)amino)-2-methyl-2,6-dihydropyrido[3,4-d]pyridazine-1,7-dione]	< 5.00
C[C@@H](Nc1nn(C)c(=O)c2cc(=O)n(C3(C(F)F)CC3)cc12)c1cccc2cccn12 [Example 114, (R)-6-(1-(difluoromethyl)cyclopropyl)-4-((1-(indolizin-5-yl)ethyl)amino)-2-methyl-2,6-dihydropyrido[3,4-d]pyridazine-1,7-dione]	5.69
C[C@H](Nc1nn(C)c(=O)c2cc(=O)n(C3(C(F)F)CC3)cc12)c1cccc2ccnn12 [Example 115, (S)-6-(1-(difluoromethyl)cyclopropyl)-2-methyl-4-((1-(pyrazolo[1,5-a]pyridin-7-yl)ethyl)amino)-2,6-dihydropyrido[3,4-d]pyridazine-1,7-dione]	< 5.00
C[C@@H](Nc1nn(C)c(=O)c2cc(=O)n(C3(C(F)F)CC3)cc12)c1cccc2ccnn12 [Example 116, (R)-6-(1-(difluoromethyl)cyclopropyl)-2-methyl-4-((1-(pyrazolo[1,5-a]pyridin-7-yl)ethyl)amino)-2,6-dihydropyrido[3,4-d]pyridazine-1,7-dione]	< 5.00
Cc1cc([C@H](C)Nc2nn(C)c(=O)c3cc(=O)n(C4CC4)cc23)cc(C(F)(F)F)c1 [Example 117, 6-cyclopropyl-2-methyl-4-[[(1S)-1-[3-methyl-5-(trifluoromethyl)phenyl]ethyl]amino]pyrido[3,4-d]pyridazine-1,7-dione]	6.25
Cc1cc([C@@H](C)Nc2nn(C)c(=O)c3cc(=O)n(C4CC4)cc23)cc(C(F)(F)F)c1 [Example 118, 6-cyclopropyl-2-methyl-4-[[(1R)-1-[3-methyl-5-(trifluoromethyl)phenyl]ethyl]amino]pyrido[3,4-d]pyridazine-1,7-dione]	< 5.00
C[C@@H](Nc1nn(C)c(=O)c2cc(=O)n(C3(CO)CC3)cc12)c1cccc(C(F)F)c1F [Example 123, (R)-4-((1-(3-(difluoromethyl)-2-fluorophenyl)ethyl)amino)-6-(1-(hydroxymethyl)cyclopropyl)-2-methylpyrido[3,4-d]pyridazine-1,7(2H,6H)-dione]	6.44

Second part, the compound after the results:

pIC50	Structure (SMILES)
6.05	C[C@@H](Nc1nn(C)c(=O)c2cc(=O)n(C3(CN4CC(F)C4)CC3)cc12)c1cccc(C(F)F)c1F [Example 124, (R)-4-((1-(3-(difluoromethyl)-2-fluorophenyl)ethyl)amino)-6-(1-((3-fluoroazetidin-1-yl)methyl)cyclopropyl)-2-methylpyrido[3,4-d]pyridazine-1,7(2H,6H)-dione]
7.27	C[C@@H](Nc1nn(C)c(=O)c2cc(=O)n(C3(CF)CC3)cc12)c1cccc(C(F)F)c1F [Example 125, (R)-4-((1-(3-(difluoromethyl)-2-fluorophenyl)ethyl)amino)-6-(1-(fluoromethyl)cyclopropyl)-2-methylpyrido[3,4-d]pyridazine-1,7(2H,6H)-dione]
7.17	C[C@@H](Nc1nn(C)c(=O)c2cc(=O)n(C3(C(C)(F)F)CC3)cc12)c1cccc(C(F)F)c1F [Example 126, (R)-6-(1-(1,1-difluoroethyl)cyclopropyl)-4-((1-(3-(difluoromethyl)-2-fluorophenyl)ethyl)amino)-2-methyl-2,6-dihydropyrido[3,4-d]pyridazine-1,7-dione]
7.05	Cc1c([C@@H](C)Nc2nn(C)c(=O)c3cc(=O)n(C45COC(C)(C4)C5)cc23)cccc1C(F)(F)F [Example 127, (R)-2-methyl-4-((1-(2-methyl-3-(trifluoromethyl)phenyl)ethyl)amino)-6-(1-methyl-2-oxabicyclo[2.1.1]hexan-4-yl)-2,6-dihydropyrido[3,4-d]pyridazine-1,7-dione]
6.55	C[C@@H](Nc1nn(C)c(=O)c2cc(=O)n(C3(C)CC(F)(F)C3)cc12)c1cccc(C(F)F)c1F [Example 134, (R)-6-(3,3-difluoro-1-methylcyclobutyl)-4-((1-(3-(difluoromethyl)-2-fluorophenyl)ethyl)amino)-2-methyl-2,6-dihydropyrido[3,4-d]pyridazine-1,7-dione]
7.08	C[C@@H](Nc1nn(C)c(=O)c2cc(=O)n(C34CNC(C3)C4)cc12)c1cccc(C(F)F)c1F [Example 145, (R)-6-(2-azabicyclo[2.1.1]hexan-4-yl)-4-((1-(3-(difluoromethyl)-2-fluorophenyl)ethyl)amino)-2-methyl-2,6-dihydropyrido[3,4-d]pyridazine-1,7-dione]
7.15	CC(=O)N1CC2(n3cc4c(N[C@H](C)c5cccc(C(F)F)c5F)nn(C)c(=O)c4cc3=O)CC1C2 [Example 146, (R)-6-(2-acetyl-2-azabicyclo[2.1.1]hexan-4-yl)-4-((1-(3-(difluoromethyl)-2-fluorophenyl)ethyl)amino)-2-methyl-2,6-dihydropyrido[3,4-d]pyridazine-1,7-dione]
7.49	C[C@@H](Nc1nn(C)c(=O)c2cc(=O)n(C3(C(F)F)CCC3)cc12)c1cccc(C(F)F)c1F [Example 147, (R)-4-((1-(3-(difluoromethyl)-2-fluorophenyl)ethyl)amino)-6-(1-(difluoromethyl)cyclo-butyl)-2-methyl-2,6-dihydropyrido[3,4-d]pyridazine-1,7-dione]
7.39	C[C@@H](Nc1nn(C)c(=O)c2cc(=O)n([C@]34COC[C@H]3C4)cc12)c1cccc(C(F)F)c1F [Example 148, 4-[[(1R)-1-[3-(difluoromethyl)-2-fluoro-phenyl]ethyl]amino]-2-methyl-6-[(1S,5S)-3-oxabicyclo[3.1.0]hexan-1-yl]pyrido[3,4-d]pyridazine-1,7-dione]
7.46	CC(=O)N1CC(C)(n2cc3c(N[C@H](C)c4cccc(C(F)F)c4F)nn(C)c(=O)c3cc2=O)C1 [Example 149, (R)-6-(1-acetyl-3-methylazetidin-3-yl)-4-((1-(3-(difluoromethyl)-2-fluorophenyl)ethyl)amino)-2-methylpyrido[3,4-d]pyridazine-1,7(2H,6H)-dione]
8.26	C[C@@H](Nc1nn(C)c(=O)c2cc(=O)n(C3(C)CN(C(=O)C4CC4)C3)cc12)c1cccc(C(F)F)c1F [Example 150, (R)-6-(1-(cyclopropanecarbonyl)-3-methylazetidin-3-yl)-4-((1-(3-(difluoromethyl)-2-fluorophenyl)ethyl)amino)-2-methyl-2,6-dihydropyrido[3,4-d]pyridazine-1,7-dione]
6.25	COC1(C(=O)N2CC(C)(n3cc4c(N[C@H](C)c5cccc(C(F)F)c5F)nn(C)c(=O)c4cc3=O)C2)CC1 [Example 151, (R)-4-((1-(3-(difluoromethyl)-2-fluorophenyl)ethyl)amino)-6-(1-(1-methoxycyclopropane-1-carbonyl)-3-methylazetidin-3-yl)-2-methyl-2,6-dihydropyrido[3,4-d]pyridazine-1,7-dione]
6.61	C[C@@H](Nc1nn(C)c(=O)c2cc(=O)n(C3(C)CNC3)cc12)c1cccc(C(F)F)c1F [Example 152, (R)-4-((1-(3-(difluoromethyl)-2-fluorophenyl)ethyl)amino)-2-methyl-6-(3-methylazetidin-3-yl)pyrido[3,4-d]pyridazine-1,7(2H,6H)-dione]
7.06	C[C@@H](Nc1nn(C)c(=O)c2cc(=O)n(C3(C)CN(C(=O)C4(F)CC4)C3)cc12)c1cccc(C(F)F)c1F [Example 153, (R)-4-((1-(3-(difluoromethyl)-2-fluorophenyl)ethyl)amino)-6-(1-(1-fluorocyclopropane-1-carbonyl)-3-methylazetidin-3-yl)-2-methyl-2,6-dihydropyrido[3,4-d]pyridazine-1,7-dione]
